# Test results from patent US12576155B2, “Senolytic and antiinflammatory prodrugs and methods of use thereof” (priority 2019, dated 2026).
# Assays:
# [1] = tested on: replication-induced senescent mouse embryonic fibroblasts (MEFs) and their non-senescent counterparts; assay: SSK1 metabolism analysis (release of gemcitabine, LC-MS/MS); format: in vitro ADME; details: 0.5 μM SSK1; senescent vs non-senescent MEFs; FIG. 1A
# Description: To detect the release of gemcitabine from SSK1 in senescent and non-senescent cells, the metabolism analysis was performed as previous reported (Karampelas et al., Mol Pharmaceut 14, 674-685(2017)). Briefly, the senescent and non-senescent cells were incubated with 0.5 μM SSK1 in DMEM medium containing 10% FBS and 1% penicillin-streptomycin for the indicated time. Then the cells slightly washed with water for twice and then harvested. Cold methanol used to extract the compounds and samples were prepared after centrifugation. The concentration of gemcitabine was determined by LC-MS/MS analysis.
# [2] = tested on: SARS-CoV-2-infected rhesus macaques; assay: SARS-CoV-2-infected rhesus macaques, late-stage SSK1 treatment (i.v. once a day 22 to 28 dpi); format: in vivo
# Description: To evaluate the therapeutic effect of SSK1 on the recovery period of SARS-CoV-2 infection, we used nine rhesus macaques of three different ages as reported before (Lu et al., 2020). All the animals were inoculated with total 4.75 ml of 10^6 pfu/ml SARS-CoV-2 intratracheally (4.00 ml), intranasally (0.50 ml) and on conjunctiva (0.25 ml). The nine rhesus macaques were divided into three groups according to the treatments, which included vehicle (DMSO), low dosage (0.5 mg/kg) and high dosage (2.0 mg/kg) of SSK1, respectively. Each group randomly selected one young, one adult and one old monkey. The final grouping is presented as following: the vehicle-treated group, RM1 (young), RM2 (adult) and RM3 (old); 0.5 mg/kg SSK1-treated group, RM4 (young), RM5 (adult) and RM6 (old); 2.0 mg/kg SSK1-treated group, RM7 (young), RM8 (adult) and RM9 (old). […] For each group, vehicle (DMSO), low dosage SSK1 (0.5 mg/kg) and high dosage SSK1 (2.0 mg/kg) were administrated intravenously (i.v.) once a day from 22 to 28 dpi. Animals were anesthetized and clinical exams were performed daily. We recorded the body weight, anal temperature on each examination day and collected blood samples for hematology analysis as well as swabs form nasal, throat and rectal for virus quantitative detection. The monkeys were euthanized on 34, 35 and 36 dpi. We collected the bronchoalveolar lavage fluid (BALF) with 10 ml PBS (Gibco, Cat #21-040-CVC) and recorded the pathological changes of all organs. Tissue samples collected from all organs and the BALF were further analyzed.
# 100 mg/ml SSK1 dissolved in DMSO (Life Science, Cat #1087C114) was mixed in 95% PBS (Gibco, Cat #21-040-CVC), 5% Tween-80 (BioFroxx, Cat #1716) and administrated intravenously (i.v.) at the dosage of 0.5 mg/kg or 2.0 mg/kg to monkeys at the indicated time point (the injection finished within 5-10 minutes). DMSO mixed in 95% PBS (Gibco, Cat #21-040-CVC), 5% Tween-80 (BioFroxx, Cat #1716) was intravenously (i.v.) injected as vehicle.
# The blood samples were collected from saphenous vein of hind limb of anaesthetized monkeys using 5 ml blood collection tube containing sodium citrate anti-coagulant for further analysis. For Complete Blood Count (CBC), Auto Hematology Analyzer (BC-5000 Vet, Mindray, China) was used. The white blood cells-related numbers and percentages of Neutrophil (Neu), Lymphocyte (Lym), Monocyte (Mon), Eosinophil (Eos), Basophil (Bas), and platelet-related items, platelet count (PLT), mean platelet volume (MPV), platelet distribution width (PDW), plateletcrit (PCT) were analyzed. For serum biochemical analysis, the blood was clotted for 30 min at 4° C. and centrifugated at 3,000×rpm for 15 min to obtain serum. The serum was used to analysis the alanine transaminase (ALT), aspartate transaminase (AST), alkaline phosphatase (ALP), uric acid (UA) and creatinine (CRE-E) by Chemistry Analyzer (Mindray, BS-350E).
# The serum and BALF samples were collected for analysis of cytokine and chemokine. Concentration of granulocyte colony-stimulating factor (G-CSF), granulocyte-macrophage colony-stimulating factor (GM-CSF), interferon (IFN)-γ, interleukin (IL)-1 receptor antagonist, IL-1β, IL-2, IL-4, IL-5, IL-6, IL-8, IL-10, IL-12/23 (p40), IL-13, IL-15, IL-17, IL-18, monocyte chemotactic protein (MCP)-1, macrophage inflammatory protein (MIP)-1α, MIP-1β, soluble CD40-ligand (sCD40L), transforming growth factor (TGF)-α, tumor necrosis factor (TNF)-α, vascular endothelial growth factor (VEGF) were determined using the Non-Human Primate Cytokine MILLIPLEX map 23-plex kit (Millipore, Cat #PRCYTOMAG-40K) according to the manufacturer's instructions.
# Autopsies of the rhesus macaques were performed according to a standard protocol. After the dissection, the major organs were grossly examined. The lung tissues were harvested, fixed in 10% neutral-buffered formalin solution, embedded in paraffin and 2 μm tissue sections were prepared. […]
smiles,measurement,setting,value
CC(=O)OCC1O[C@@H](Oc2ccc(COC(=O)Nc3ccn([C@@H]4O[C@H](CO)C(O)C4(F)F)c(=O)n3)cc2[N+](=O)[O-])C(OC(C)=O)C(OC(C)=O)[C@H]1OC(C)=O (stereo partly drawn) [SSK1],Metabolism of SSK1 into gemcitabine,[1],specifically cleaved to release cytotoxic gemcitabine in senescent cells but not in non-senescent cells
same,Body weight change (32 dpi vs 22 dpi %),"[2]; RM4 young 1-year, 0.5 mg/kg",+25.00%
same,Body weight change (32 dpi vs 22 dpi %),"[2]; RM5 adult 5-year, 0.5 mg/kg",−3.45%
same,Body weight change (32 dpi vs 22 dpi %),"[2]; RM6 old 17-year, 0.5 mg/kg",−1.25%
same,Body weight change (32 dpi vs 22 dpi %),"[2]; RM7 young 1-year, 2.0 mg/kg",+12.50%
same,Body weight change (32 dpi vs 22 dpi %),"[2]; RM8 adult 5-year, 2.0 mg/kg",+9.68%
same,Body weight change (32 dpi vs 22 dpi %),"[2]; RM9 old 18-year, 2.0 mg/kg",+1.82%
same,Body weight loss,"[2]; SSK1 0.5 or 2.0 mg/kg, 22 to 32 dpi",effectively prevented body weight loss
same,Pulmonary histology assessment (histologic lesions),[2]; SSK1-treated animals vs vehicle,reduction in histologic lesions
same,"Diseased phenotype of lung sections (thickened alveolar septum, edema, hemorrhage; H&E staining)",[2]; SSK1-treated group vs vehicle,greatly improved
same,"Inflammatory cytokines in blood including IL-6, IL-8, IL-10, IL-15, TGF-α and MCP1","[2]; SSK1-treated old monkeys, especially at 2 mg/kg",reduced at 28 dpi compared with 21 dpi
same,Serum level of IL-18,[2]; all high-dosage (2.0 mg/kg) SSK1-treated monkeys,increased level
same,New lung lesions at necropsy,[2]; all six SSK1-treated monkeys,only found one exhibiting new lung lesions
same,Macrophage infiltration in lung (CD68 immunohistochemistry),"[2]; especially at high dosages, in the elderly group",significantly reduced macrophage infiltration
same,Adverse effects,[2]; treated monkeys,did not observe any adverse effects
